In patent publication US20100099561A1, “HETEROBICYCLIC ALKYLTHIO-BRIDGED ISOXAZOLINES” (E.I. DU PONT DE NEMOURS AND COMPANY, priority 2008, published 2010):

Assays:
Format in all cases: in vivo
[1] = tested on: barnyardgrass (Echinochloa crus-galli); assay: Test A preemergence, barnyardgrass; settings: 0 to 100 scale (0 no effect, 100 complete control)
How it was run: (§1)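 Scores reflect visual plant injury on a 0 (no effect) to 100 (complete control) scale, assessed about ten days after application in the greenhouse. Compounds were delivered in a non-phytotoxic solvent blend with surfactant, either preemergence to soil or postemergence at one- to two-leaf stage.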

[2] = tested on: large crabgrass (Digitaria sanguinalis); assay: Test A preemergence, large crabgrass; settings: 0 to 100 scale (0 no effect, 100 complete control)
How it was run: as §1

[3] = tested on: giant foxtail (Setaria faberi); assay: Test A preemergence, giant foxtail; settings: 0 to 100 scale (0 no effect, 100 complete control)
How it was run: as §1

[4] = tested on: morningglory (Ipomoea spp.); assay: Test A preemergence, morningglory; settings: 0 to 100 scale (0 no effect, 100 complete control)
How it was run: as §1

[5] = tested on: pigweed (Amaranthus retroflexus); assay: Test A preemergence, pigweed; settings: 0 to 100 scale (0 no effect, 100 complete control)
How it was run: as §1

[6] = tested on: velvetleaf (Abutilon theophrasti); assay: Test A preemergence, velvetleaf; settings: 0 to 100 scale (0 no effect, 100 complete control)
How it was run: as §1

[7] = tested on: wheat (Triticum aestivum); assay: Test A preemergence, wheat; settings: 0 to 100 scale (0 no effect, 100 complete control)
How it was run: as §1

corn (Zea mays) [8] = assay: Test A preemergence, corn; settings: 125 g ai/ha, 0 to 100 scale (0 no effect, 100 complete control)
How it was run: as §1

[9] = tested on: barnyardgrass (Echinochloa crus-galli); assay: Test A postemergence, barnyardgrass; settings: 0 to 100 scale (0 no effect, 100 complete control)
How it was run: as §1

[10] = tested on: large crabgrass (Digitaria sanguinalis); assay: Test A postemergence, large crabgrass; settings: 0 to 100 scale (0 no effect, 100 complete control)
How it was run: as §1

[11] = tested on: giant foxtail (Setaria faberi); assay: Test A postemergence, giant foxtail; settings: 0 to 100 scale (0 no effect, 100 complete control)
How it was run: as §1

[12] = tested on: morningglory (Ipomoea spp.); assay: Test A postemergence, morningglory; settings: 0 to 100 scale (0 no effect, 100 complete control)
How it was run: as §1

[13] = tested on: pigweed (Amaranthus retroflexus); assay: Test A postemergence, pigweed; settings: 0 to 100 scale (0 no effect, 100 complete control)
How it was run: as §1

[14] = tested on: velvetleaf (Abutilon theophrasti); assay: Test A postemergence, velvetleaf; settings: 0 to 100 scale (0 no effect, 100 complete control)
How it was run: as §1

[15] = tested on: wheat (Triticum aestivum); assay: Test A postemergence, wheat; settings: 0 to 100 scale (0 no effect, 100 complete control)
How it was run: as §1

corn (Zea mays) [16] = assay: Test A postemergence, corn; settings: 0 to 100 scale (0 no effect, 100 complete control)
How it was run: as §1

[17] = tested on: Italian ryegrass (Lolium multiflorum); assay: Test B preemergence, Italian ryegrass; settings: Table B, preemergence; visual rating on a 0 to 100 scale (0 no effect, 100 complete control), 13 to 15 days after treatment; application rate of this section not shown
Excerpt: (§2) Seeds of plant species selected from blackgrass (Alopecurus myosuroides), downy bromegrass (Bromus tectorum), green foxtail (Setaria viridis), Italian ryegrass (Lolium multiflorum), wheat (Triticum aestivum), wild oat (Avena fatua), catchweed bedstraw (Galium aparine), bermudagrass (Cynodon dactylon), Surinam grass (Brachiaria decumbens), cocklebur (Xanthium strumarium), corn (Zea mays), large crabgrass (Digitaria sanguinalis), woolly cupgrass (Eriochloa villosa), giant foxtail (Setaria faberii), goosegrass (Eleusine indica), johnsongrass (Sorghum halepense), kochia (Kochia scoparia), lambsquarters (Chenopodium album), morningglory (Ipomoea coccinea), nightshade (eastern black nightshade, Solanum ptycanthum), yellow nutsedge (Cyperus esculentus), pigweed (Amaranthus retroflexus), ragweed (common ragweed, Ambrosia elatior), soybean (Glycine max), sunflower (common oilseed sunflower, Helianthus annuus), Russian thistle (Salsola kali), and velvetleaf (Abutilon theophrasti) were planted into a blend of loam soil and sand and treated preemergence with test compounds formulated in a non-phytotoxic solvent mixture which included a surfactant. Treated plants and controls were maintained in a greenhouse for 13 to 15 days, after which time all species were compared to controls and visually evaluated. Plant response ratings, summarized in Table B, are based on a scale of 0 to 100 where 0 is no effect and 100 is complete control. A dash (-) response means no test result.

[18] = tested on: wheat (Triticum aestivum); assay: Test B preemergence, wheat; settings: Table B, preemergence; visual rating on a 0 to 100 scale (0 no effect, 100 complete control), 13 to 15 days after treatment; application rate of this section not shown
Excerpt: as §2

[19] = tested on: Surinam grass (Brachiaria decumbens); assay: Test B preemergence, Surinam grass; settings: Table B, preemergence; visual rating on a 0 to 100 scale (0 no effect, 100 complete control), 13 to 15 days after treatment; application rate of this section not shown
Excerpt: as §2

soybean (Glycine max) = assay: Test B preemergence, soybean; settings: Table B, preemergence; visual rating on a 0 to 100 scale (0 no effect, 100 complete control), 13 to 15 days after treatment; application rate of this section not shown
Excerpt: as §2

[20] = tested on: sunflower (common oilseed sunflower, Helianthus annuus); assay: Test B preemergence, sunflower; settings: Table B, preemergence; visual rating on a 0 to 100 scale (0 no effect, 100 complete control), 13 to 15 days after treatment; application rate of this section not shown
Excerpt: as §2

[21] = tested on: velvetleaf (Abutilon theophrasti); assay: Test B preemergence, velvetleaf; settings: Table B, preemergence; visual rating on a 0 to 100 scale (0 no effect, 100 complete control), 13 to 15 days after treatment; application rate of this section not shown
Excerpt: as §2

rice (Oryza sativa) = assay: Test B flooded paddy test, rice; settings: Flood, scale 0 to 100
How it was run: (§3)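 Step one: raise plants to 2 leaves. Step two: flood pots 3 cm over the soil and apply compound into the water, keeping this depth. Step three: after 13–15 greenhouse days, score visually versus controls, 0–100, where 100 means complete control.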

[22] = tested on: umbrella sedge (Cyperus difformis); assay: Test B flooded paddy test, umbrella sedge; settings: Flood, scale 0 to 100
How it was run: as §3

[23] = tested on: ducksalad (Heteranthera limosa); assay: Test B flooded paddy test, ducksalad; settings: Flood, scale 0 to 100
How it was run: as §3

[24] = tested on: barnyardgrass (Echinochloa crus-galli); assay: Test B flooded paddy test, barnyardgrass; settings: Flood
How it was run: as §3

Cn1c(=O)c(CS(=O)(=O)C2=NOC(C)(C)C2)c(C(F)(F)F)c2ccccc21 [Compound 1, 3-[[(4,5-dihydro-5,5-dimethyl-3-isoxazolyl)sulfonyl]methyl]-1-methyl-4-(trifluoromethyl)-2(1H)-quinolinone]
80: Plant response rating, Barnyardgrass ([1]; 500 g ai/ha) | Plant response rating, Barnyardgrass ([9]; 500 g ai/ha) | Plant response rating, Foxtail, Giant ([11]; 500 g ai/ha)
20: Plant response rating, Foxtail, Giant ([11]; 125 g ai/ha) | Plant response rating, Velvetleaf ([14]; 500 g ai/ha) | Plant response rating, Rice (rice (Oryza sativa); 250 g ai/ha) | Plant response rating, Barnyardgrass ([24]; 31 g ai/ha, scale 0 to 100) | Plant response rating, Barnyardgrass ([24]; 62 g ai/ha, scale 0 to 100) | Plant response rating, Barnyardgrass ([24]; 125 g ai/ha, scale 0 to 100) | Plant response rating, Barnyardgrass ([24]; 250 g ai/ha, scale 0 to 100 (0 no effect, 100 complete control))
70: Plant response rating, Crabgrass, Large ([10]; 500 g ai/ha)
60: Plant response rating, Pigweed ([5]; 500 g ai/ha)
50: Plant response rating, Crabgrass, Large ([2]; 500 g ai/ha) | Plant response rating, Pigweed ([13]; 500 g ai/ha)
10: Plant response rating, Crabgrass, Large ([10]; 125 g ai/ha)
90: Plant response rating, Foxtail, Giant ([3]; 500 g ai/ha)
0: Plant response rating, Barnyardgrass ([1]; 125 g ai/ha) | Plant response rating, Crabgrass, Large ([2]; 125 g ai/ha) | Plant response rating, Morningglory ([4]; 125 g ai/ha) | Plant response rating, Morningglory ([4]; 500 g ai/ha) | Plant response rating, Pigweed ([5]; 125 g ai/ha) | Plant response rating, Velvetleaf ([6]; 125 g ai/ha) | Plant response rating, Velvetleaf ([6]; 500 g ai/ha) | Plant response rating, Wheat ([7]; 125 g ai/ha) | Plant response rating, Wheat ([7]; 500 g ai/ha) | Plant response rating, Corn (corn (Zea mays) [8]) | Plant response rating, Barnyardgrass ([9]; 125 g ai/ha) | Plant response rating, Morningglory ([12]; 125 g ai/ha) | Plant response rating, Morningglory ([12]; 500 g ai/ha) | Plant response rating, Pigweed ([13]; 125 g ai/ha) | Plant response rating, Velvetleaf ([14]; 125 g ai/ha) | Plant response rating, Wheat ([15]; 125 g ai/ha) | Plant response rating, Wheat ([15]; 500 g ai/ha) | Plant response rating, Corn (corn (Zea mays) [16]; 125 g ai/ha) | Plant response rating, Corn (corn (Zea mays) [16]; 500 g ai/ha) | Plant response rating, Ryegrass, Italian [17] | Plant response rating, Wheat [18] | Plant response rating, Surinam Grass [19] | Plant response rating, Soybean (soybean (Glycine max)) | Plant response rating, Sunflower [20] | Plant response rating, Velvetleaf [21] | Plant response rating, Rice (rice (Oryza sativa); 31 g ai/ha) | Plant response rating, Rice (rice (Oryza sativa); 62 g ai/ha) | Plant response rating, Rice (rice (Oryza sativa); 125 g ai/ha) | Plant response rating, Sedge, Umbrella ([22]; 31 g ai/ha) | Plant response rating, Sedge, Umbrella ([22]; 62 g ai/ha) | Plant response rating, Sedge, Umbrella ([22]; 125 g ai/ha) | Plant response rating, Sedge, Umbrella ([22]; 250 g ai/ha) | Plant response rating, Ducksalad ([23]; 31 g ai/ha) | Plant response rating, Ducksalad ([23]; 62 g ai/ha) | Plant response rating, Ducksalad ([23]; 125 g ai/ha) | Plant response rating, Ducksalad ([23]; 250 g ai/ha)
30: Plant response rating, Foxtail, Giant ([3]; 125 g ai/ha)
